# According to US20160221948A1, “NITROGEN-CONTAINING SATURATED HETEROCYCLIC COMPOUND” (SUMITOMO CHEMICAL COMPANY, LIMITED, priority 2013, published 2016):
# Molecular target: human SSTR4 (Homo sapiens, UniProt P31391)
# Test: Evaluation of agonist activities using human SSTR4-stably expressing cells (aequorin luminescence)
# Format: cell-based
# Design: expressed in transfected cells; host or cells: HEK293
# How it was run: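 HEK293 cells stably expressing SSTR4, transiently given Gα16 and apoaequorin, were loaded with 0.5 μmol/L coelenterazine H for 4 h at room temperature. After compound addition in Hanks/20 mM Hepes/0.1% BSA, luminescence was read for 90 s. Activity is relative to 1 μmol/L somatostatin as 100%.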
# Sequence of human SSTR4 (P31391 whole entry): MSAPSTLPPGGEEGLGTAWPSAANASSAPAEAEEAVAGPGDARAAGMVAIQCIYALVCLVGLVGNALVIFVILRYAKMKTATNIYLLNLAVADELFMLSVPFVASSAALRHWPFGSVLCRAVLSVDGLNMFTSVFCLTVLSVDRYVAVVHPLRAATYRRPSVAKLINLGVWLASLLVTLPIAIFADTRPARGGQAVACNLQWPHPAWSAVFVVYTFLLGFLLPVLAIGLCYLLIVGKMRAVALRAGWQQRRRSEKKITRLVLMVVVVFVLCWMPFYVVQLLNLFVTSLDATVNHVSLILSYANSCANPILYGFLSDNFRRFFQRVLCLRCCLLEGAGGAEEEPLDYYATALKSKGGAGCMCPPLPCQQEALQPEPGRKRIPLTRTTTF
compound,measurement,setting,value
"CN1CCC[C@H](C(=O)NC(C)(C)c2cc(Cl)ccc2Cl)C1 [Example 21, (3S)—N-[2-(2,5-dichlorophenyl)propane-2-yl]-1-methylpiperidine-3-carboxamide]",SSTR4 agonist activity compared with other compounds,Tables 25 to 27,stronger SSTR4 agonist activity
same,EC50,"luminescence signal, 1 μmol/L somatostatin taken as 100%",2 nM
